Legend:
F508delCFTR [1] = target: T1, F508delCFTR (Homo sapiens, UniProt P13569, DEL508-508); assay: Cell Surface Expression-Horse Radish Peroxidase (CSE-HRP) assay, test compound without co-corrector; type: cell-based; conditions: for Emax: maximum at any tested concentration, normalized to positive control, without co-corrector; for EC50: test compound without co-corrector;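 as to Emax: percent of on-plate 2 µM positive control corrector response over DMSO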
T1 construct: expressed in transfected cells; host or cells: CFBE41o- human lung-derived epithelial cells (CFBE41o-F508delCFTR-HRP), doxycycline-inducible
T1 sequence (P13569 with tags, fused parts or gaps DEL508-508): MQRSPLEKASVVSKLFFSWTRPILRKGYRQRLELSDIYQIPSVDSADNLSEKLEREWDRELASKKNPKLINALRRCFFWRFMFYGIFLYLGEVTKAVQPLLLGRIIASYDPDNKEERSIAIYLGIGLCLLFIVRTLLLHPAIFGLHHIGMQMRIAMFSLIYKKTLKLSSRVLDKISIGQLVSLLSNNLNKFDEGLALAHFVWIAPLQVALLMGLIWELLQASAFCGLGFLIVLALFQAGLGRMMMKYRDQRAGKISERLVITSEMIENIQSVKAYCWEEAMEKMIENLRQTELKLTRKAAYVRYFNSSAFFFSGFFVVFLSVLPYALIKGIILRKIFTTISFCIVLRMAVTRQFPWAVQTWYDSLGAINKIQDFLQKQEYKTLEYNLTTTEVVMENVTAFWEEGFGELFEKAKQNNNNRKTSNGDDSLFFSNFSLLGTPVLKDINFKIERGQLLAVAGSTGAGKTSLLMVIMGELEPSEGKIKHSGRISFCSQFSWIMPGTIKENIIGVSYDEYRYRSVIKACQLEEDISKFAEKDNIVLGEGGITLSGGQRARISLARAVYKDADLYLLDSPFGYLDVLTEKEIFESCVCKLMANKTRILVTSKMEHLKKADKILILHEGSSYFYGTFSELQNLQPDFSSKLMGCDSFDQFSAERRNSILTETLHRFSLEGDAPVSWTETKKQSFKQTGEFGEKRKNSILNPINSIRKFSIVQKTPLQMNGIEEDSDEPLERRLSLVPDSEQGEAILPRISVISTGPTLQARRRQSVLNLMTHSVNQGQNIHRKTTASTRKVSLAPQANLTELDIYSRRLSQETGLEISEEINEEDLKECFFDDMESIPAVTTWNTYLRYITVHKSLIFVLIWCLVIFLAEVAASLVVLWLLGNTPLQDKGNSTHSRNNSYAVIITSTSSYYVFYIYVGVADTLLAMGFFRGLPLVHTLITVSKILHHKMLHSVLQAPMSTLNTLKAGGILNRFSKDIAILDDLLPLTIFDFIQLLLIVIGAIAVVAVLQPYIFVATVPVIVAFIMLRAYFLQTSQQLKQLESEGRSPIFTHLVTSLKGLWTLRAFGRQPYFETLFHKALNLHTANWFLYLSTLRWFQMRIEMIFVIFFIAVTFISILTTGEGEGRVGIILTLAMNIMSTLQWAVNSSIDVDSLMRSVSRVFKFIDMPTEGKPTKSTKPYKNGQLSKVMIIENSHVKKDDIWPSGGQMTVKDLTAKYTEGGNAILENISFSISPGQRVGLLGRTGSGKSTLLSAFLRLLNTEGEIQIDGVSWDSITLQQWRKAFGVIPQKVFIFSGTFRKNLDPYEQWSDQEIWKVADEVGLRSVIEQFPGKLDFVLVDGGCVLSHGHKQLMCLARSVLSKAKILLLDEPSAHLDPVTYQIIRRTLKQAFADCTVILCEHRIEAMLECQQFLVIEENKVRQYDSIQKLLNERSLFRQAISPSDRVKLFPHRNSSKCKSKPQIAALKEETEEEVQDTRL
Method in brief: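 CFBE41o- cells expressing F508delCFTR with HRP in the fourth exofacial loop, induced with 0.5 μg/mL doxycycline for 72 h at 37° C, then exposed to compound alone for 18-24 h at 33° C, 8-point 3-fold series from 20 μM. Surface HRP read by luminol luminescence, normalized to positive corrector control versus DMSO; EC50 from variable-slope sigmoidal fit of three replicate plates.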

F508delCFTR [2] = target: T1, F508delCFTR; assay: Cell Surface Expression-Horse Radish Peroxidase (CSE-HRP) assay, test compound with co-corrector; type: cell-based; conditions: with 2 μM co-corrector; for Maximum % activity (with co-corrector): maximum at any tested concentration, normalized to positive control;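 as to Maximum % activity (with co-corrector): percent of 2 µM positive control corrector over DMSO; co-corrector is that same compound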
Method in brief: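 CFBE41o- cells expressing F508delCFTR with HRP in the fourth exofacial loop, induced with 0.5 μg/mL doxycycline for 72 h, then treated 18-24 h at 33° C. with compound (8 points, top 20 μM, 3-fold) plus 2 μM co-corrector. Surface HRP read by luminol luminescence; activity normalised to positive control, EC50 from variable-slope sigmoidal fit.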

## COc1cccc2c1CCC2C(=O)NS(=O)(=O)c1ccc(C)cc1 (centres unmarked) [III-23]
F508delCFTR [1]
  Emax: < 50%
  EC50: 3 to 10 µM
F508delCFTR [2]
  Maximum % activity (with co-corrector): ++ (≥150 and <350)
  EC50: 3 to 10 µM

## COc1cccc2c1CCC2C(=O)NS(=O)(=O)c1nnc(NC(C)=O)s1 (centres unmarked) [III-24]
F508delCFTR [1]
  Emax: < 50%
  EC50: ≥ 10 µM
F508delCFTR [2]
  Maximum % activity (with co-corrector): + (<150)
  EC50: ≥ 10 µM

## COc1cccc2c1CCC2C(=O)NS(=O)(=O)c1cc(C)ccc1C(C)C (centres unmarked) [III-25]
F508delCFTR [1]
  Emax: < 50%
  EC50: ≥ 10 µM
F508delCFTR [2]
  Maximum % activity (with co-corrector): + (<150)
  EC50: 3 to 10 µM

## COc1cccc2c1CCC2C(=O)NS(=O)(=O)c1ccc(S(C)(=O)=O)cc1 (centres unmarked) [III-26]
F508delCFTR [1]
  Emax: < 50%
  EC50: ≥ 10 µM
F508delCFTR [2]
  Maximum % activity (with co-corrector): + (<150)
  EC50: ≥ 10 µM

## COc1cccc2c1CCC2C(=O)NS(=O)(=O)c1cccc([N+](=O)[O-])c1 (centres unmarked) [III-27]
F508delCFTR [1]
  Emax: < 50%
  EC50: ≥ 10 µM
F508delCFTR [2]
  Maximum % activity (with co-corrector): + (<150)
  EC50: ≥ 10 µM

## COc1cccc2c1CCC2C(=O)NS(=O)(=O)c1ccc(Cl)c([N+](=O)[O-])c1 (centres unmarked) [III-28]
F508delCFTR [1]
  Emax: < 50%
  EC50: ≥ 10 µM
F508delCFTR [2]
  Maximum % activity (with co-corrector): + (<150)
  EC50: ≥ 10 µM

## COc1cccc2c1CCC2C(=O)NS(=O)(=O)c1cc([N+](=O)[O-])ccc1C (centres unmarked) [III-30]
F508delCFTR [1]
  Emax: < 50%
  EC50: ≥ 10 µM
F508delCFTR [2]
  Maximum % activity (with co-corrector): + (<150)
  EC50: ≥ 10 µM

## COc1cccc2c1CCC2C(=O)NS(=O)(=O)c1ccc(NC(C)=O)cc1C (centres unmarked) [III-31]
F508delCFTR [1]
  Emax: < 50%
  EC50: ≥ 10 µM
F508delCFTR [2]
  Maximum % activity (with co-corrector): + (<150)
  EC50: ≥ 10 µM

## COc1cccc2c1CCC2C(=O)NS(=O)(=O)c1ccc(Cl)cc1 (centres unmarked) [III-32]
F508delCFTR [1]
  Emax: < 50%
  EC50: ≥ 10 µM
F508delCFTR [2]
  Maximum % activity (with co-corrector): + (<150)
  EC50: ≥ 10 µM

## COc1cccc2c1CCC2C(=O)NS(=O)(=O)c1ccc(Cl)cc1[N+](=O)[O-] (centres unmarked) [III-33]
F508delCFTR [1]
  Emax: < 50%
  EC50: ≥ 10 µM
F508delCFTR [2]
  Maximum % activity (with co-corrector): ++ (≥150 and <350)
  EC50: < 3 µM

## COc1cccc2c1CCC2C(=O)NS(=O)(=O)c1ccc2ccccc2c1 (centres unmarked) [III-34]
F508delCFTR [1]
  Emax: < 50%
  EC50: ≥ 10 µM
F508delCFTR [2]
  Maximum % activity (with co-corrector): + (<150)
  EC50: ≥ 10 µM

## COc1cccc2c1CCC2C(=O)NS(=O)(=O)c1cccc(Cl)c1 (centres unmarked) [III-35]
F508delCFTR [1]
  Emax: < 50%
  EC50: ≥ 10 µM
F508delCFTR [2]
  Maximum % activity (with co-corrector): ++ (≥150 and <350)
  EC50: 3 to 10 µM

## COc1cccc2c1CCC2C(=O)NS(=O)(=O)c1ccc(NC(=O)CC(C)=O)cc1 (centres unmarked) [III-36]
F508delCFTR [1]
  Emax: < 50%
  EC50: ≥ 10 µM
F508delCFTR [2]
  Maximum % activity (with co-corrector): + (<150)
  EC50: ≥ 10 µM

## COc1cccc2c1CCC2C(=O)NS(=O)(=O)c1ccc(Cl)cc1Cl (centres unmarked) [III-37]
F508delCFTR [1]
  Emax: < 50%
  EC50: ≥ 10 µM
F508delCFTR [2]
  Maximum % activity (with co-corrector): + (<150)
  EC50: ≥ 10 µM

## COc1cccc2c1CCC2C(=O)NS(=O)(=O)c1cc(C)c(N)cc1Cl (centres unmarked) [III-38]
F508delCFTR [1]
  Emax: < 50%
  EC50: ≥ 10 µM
F508delCFTR [2]
  Maximum % activity (with co-corrector): ++ (≥150 and <350)
  EC50: 3 to 10 µM

## COc1cccc2c1CCC2C(=O)NS(=O)(=O)c1cc(C)ccc1Cl (centres unmarked) [III-39]
F508delCFTR [1]
  Emax: < 50%
  EC50: ≥ 10 µM
F508delCFTR [2]
  Maximum % activity (with co-corrector): + (<150)
  EC50: ≥ 10 µM

## COc1cccc2c1CCC2C(=O)NS(=O)(=O)c1cc([N+](=O)[O-])ccc1Cl (centres unmarked) [III-40]
F508delCFTR [1]
  Emax: < 50%
  EC50: ≥ 10 µM
F508delCFTR [2]
  Maximum % activity (with co-corrector): + (<150)
  EC50: ≥ 10 µM

## COc1cccc2c1CCC2C(=O)NS(=O)(=O)c1ccc(NC(C)=O)cc1 (centres unmarked) [III-41]
F508delCFTR [1]
  Emax: < 50%
  EC50: ≥ 10 µM
F508delCFTR [2]
  Maximum % activity (with co-corrector): + (<150)
  EC50: ≥ 10 µM

## COc1cccc2c1CCC2C(=O)NS(=O)(=O)c1ccc(NC(C)=O)cc1Cl (centres unmarked) [III-42]
F508delCFTR [1]
  Emax: < 50%
  EC50: ≥ 10 µM
F508delCFTR [2]
  Maximum % activity (with co-corrector): + (<150)
  EC50: ≥ 10 µM

## CCCC(=O)Nc1ccc(S(=O)(=O)NC(=O)C2CCc3c(OC)cccc32)cc1 (centres unmarked) [III-43]
F508delCFTR [1]
  Emax: < 50%
  EC50: ≥ 10 µM
F508delCFTR [2]
  Maximum % activity (with co-corrector): + (<150)
  EC50: ≥ 10 µM

## COc1cccc2c1CCC2C(=O)NS(=O)(=O)c1c(C)nn(C)c1Cl (centres unmarked) [III-44]
F508delCFTR [1]
  Emax: < 50%
  EC50: ≥ 10 µM
F508delCFTR [2]
  Maximum % activity (with co-corrector): + (<150)
  EC50: ≥ 10 µM

## COc1cccc2c1CCC2C(=O)NS(=O)(=O)c1c(C)nc(O)nc1O (centres unmarked) [III-45]
F508delCFTR [1]
  Emax: < 50%
  EC50: ≥ 10 µM
F508delCFTR [2]
  Maximum % activity (with co-corrector): + (<150)
  EC50: ≥ 10 µM

## COc1cccc2c1CCC2C(=O)NS(=O)(=O)c1ccc(C#N)cc1 (centres unmarked) [III-46]
F508delCFTR [1]
  Emax: < 50%
  EC50: ≥ 10 µM
F508delCFTR [2]
  Maximum % activity (with co-corrector): + (<150)
  EC50: ≥ 10 µM
